Measurements: patent US12433892B2, “Compositions and methods of treatment for neurological disorders comprising depression” (Gliapharm SA, priority 2018, dated 2025)
Structures can show the parent of a compound that is named as a salt.

Key:
[1] = tested on: primary astrocytes; assay: Intracellular glycogen quantification, Example 2; type: cell-based, mouse; conditions: 10 μM, 3 h (GP-0157: 0.1, 1, 10 μM)
Experimental: To assess for the effect of the compounds of the invention, those were tested in primary astrocytes, as described below. Secretion of lactate was measured directly in the extracellular medium, and indirectly through the acidification of extracellular medium using extracellular pH sensor SNARE-5F-(AND-6)-CAR (SNARF5). Glucose uptake was measured by quantification 2-deoxyglucose in the cell. Cell Cultures Primary cultures of cerebrocortical astrocytes were obtained from 1 to 2-day-old OF1 mouse pups (Charles River). Briefly, cortices were isolated and minced in small pieces under a dissecting microscope. The cells were incubated for 30 min at 37° C. in a solution containing 20 U/ml papain, 1 mM L-cysteine and 10 kU/ml DNase I. After dissociation, papain activity was stopped by the addition of fetal calf serum (FCS). Single-cell suspension was then obtained by mechanical dissociation, which consisted in cells trituration in a DMEM D7777 medium supplemented with 44 mm NaHCO3, 10 ml/L antibiotic/antimycotic solution and 10% FCS. The cells were seeded at an average density of ˜10'000 cells/cm2 on poly-D-lysine coated 96- or 12-well culture plates, depending on their use, and grown in DMEM D7777 medium supplemented with 44 mm NaHCO3, 10 ml/L antibiotic/antimycotic solution and 10% FCS at 37° C. in a humidified atmosphere containing 5% CO2/95% air. Culture medium was renewed twice a week. Cells were stimulated and harvested between DIV14 and DIV17, when confluence and cell growth were optimal. Extracellular Medium Acidification (SNARF5) Secretion of lactate was measured indirectly through the acidification of extracellular medium using extracellular pH sensor […] (SNARF5). After washing cells twice with stimulation medium (DMEM (D5030, Sigma), 1 mM NaHCO2, and 5 mM Glucose, pH 7.4) at 37° C., cells were stimulated with compounds at a final concentration ranging from 10 nM to 30 μM in 50 μl per well of stimulation medium supplemented with 10 μM of SNARF5 (Life Technologies Corporation). Each compound was tested in two different plates for duplicates. After 90 min stimulation, fluorescence was read at exc. (excitation) 480 nm/emm. (emission) 580 nm and at exc 480 nm/emm. 630 nm. The ratio of fluorescence between 630 nm and 580 emission values, which is proportional to extracellular pH, was calculated. In each plate, 8 wells were used for negative controls (DMSO 0.1%) and 8 wells were used for positive controls (CCCP 2 μM in DMSO). The extracellular medium acidification in primary mouse astrocytes treated with GP-A1 was quantified (FIG. 13). Extracellular medium acidification was measured over a period of 1.5 h and 3 h. […] Extracellular Lactate Quantification Secretion of L-lactate was measured in the extracellular medium of 96-well plated astrocytes after 90 min stimulation (at 37° C., in 5% CO2/95% air conditions) with Vehicle (DMSO), the compounds of the invention (100 nM to 100 μM) or positive control. […] Stimulation medium was composed of D5030 medium complemented with 5 mM D-glucose and 44 mM sodium bicarbonate, pH 7.2. To quantify lactate concentrations in the extracellular medium, 200 μl of a 0.2M Glycine-semicarbazide buffer (pH 10) containing 3 mM NAD and 14 U/ml LDH was added to each well of a 96-well plate containing 30 μl aliquots of extracellular medium. Samples were incubated at 37° C. for 1 h. Fluorescence intensity (340 nm excitation/450 nm emission), which represents the amount of NADH produced, was measured, and lactate concentration values were determined relative to a standard curve of L-lactate concentrations. The release of lactate from primary mouse astrocytes treated with GP-A1 was quantified (FIG. 5A and FIG. 14). Accumulation of lactate in the extracellular medium was measured over a period of 1.5 h. […] Intracellular Glycogen Quantification Astrocytes grown on 12-well plates were used for intracellular glycogen quantifications. […]

[2] = tested on: astrocytes; assay: Intracellular glycogen quantification; type: cell-based, mouse; conditions: CDC54K hits; 10 uM, 3 h
[3] = tested on: astrocytes; assay: Intracellular glycogen quantification; type: cell-based, mouse; conditions: Prestwick hits; 10 uM, 3 h
Experimental: For glycogen dosage, a protein dosage was first performed in order to assess whether harvested astrocytes from primary cell cultures yielded enough and equivalent amounts of proteins comparing each replicate, and to ensure that the obtained differences in glycogen quantities were due to drug action and not to inner protein quantities.
Astrocytes used for these dosages were previously grown in 6-well plates for 17 days and stimulated with Vehicle (DMSO) or drug of interest (1 μM to 100 μM) for 180 min, at 37° C. 5% CO2/95% air in D5030 complete medium. Medium was removed and replaced with 600 μl of 30 mM Tris HCl, and stored at −20° C.
Proteins were dosed using the micro BCA Protein Assay kit (Thermo Scientific), as described in the manufacturer's instructions. Briefly, thawed cells were sonicated and 5 μl aliquots were placed in a transparent 96-well plate, to which we added 25 μl 30 mM Tris HCl, 70 μl H2O and 100 μl of a BCA mix (made as described in manufacturer's guidelines). After a 120 min-incubation at 37° C., absorbance was measured with Safire 2 spectrophotometer at a wavelength of 562 nm, and protein quantities were determined from a standard curve of Bovine Serum Albumin (BSA).
Glycogen was quantified using a 250 μl-aliquot of the same stimulated, thawed, and sonicated cells. After an incubation period of 30 min at 90° C. and 400 rpm, 28 μl of an acetic acid/sodium acetate (both from Sigma) 0.1M pH 4.6 buffer was added to each aliquot, which was then separated in two. Each split aliquot received whether 5 μl of amyloglucosidase (Roche) or 5 μl H2O, and all cell solutions were incubated for 120 min in a shaking 37° C.-waterbath. After a centrifugation at 16'000 G for 5 min, 20 μl of supernatant were placed 96-well plate, to which 150 μl of a mix containing 0.67 mM ATP (Roche), 0.67 mM NADP (Roche), 1.8% hexokinase/glucose-6-phosphate dehydrogenase (Roche) and 0.1M Tris Buffer-HCl/3.3 mM magnesium (Fluka)/pH 8.1 buffer was added. Fluorescence was measured with Safire 2 spectrophotometer (340 nm excitation/440 nm emission). Glycogen concentration was obtained by subtracting glucose value of samples with amyloglucosidase to samples without amyloglucosidase, and were expressed relative to the amount of proteins previously determined.
Levels of intracellular glycogen in astrocytes were measured at 3 h after stimulation with 20 hits from the Prestwick library (10 μM each), as shown in FIG. 2. n=6-10; Ctrl pos. is glutamate (0.5 mM). Statistical analysis consisted in ANOVA followed by Fisher LSD post-hoc test for pair-wise comparisons.
Statistical analysis consisted in ANOVA followed by Fisher LSD post-hoc test for pair-wise comparisons.

[4] = tested on: cerebral extracellular lactate; assay: In vivo pharmacodynamics: lactate biosensors in cortex; set-up: species or system mouse
Experimental: Extracellular levels of lactate were monitored in vivo using lactate biosensors (Pinnacle Technology), according to the manufacturer's instructions. Cannulae were surgically implanted in mice cerebral cerebral motor cortex areas M1/M2 (coordinates: +1.94 mm (to bregma), lateral −1.4 mm (to mideline), ventral −1.0 mm (to dura)) 5-7 days before administration of the compounds. Drugs were administered per os as previously described, and cerebral levels of extracellular lactate were dynamically recorded for 6 hours. Mice were administered vehicle alone first, followed 3 hours later by vehicle or drug (10 or 100 mg/kg). Area Under the Curve (AUC) quantifying the fluctuations of extracellular lactate concentrations for each of the compound tested was calculated using Graphad Prism and the ratio of AUC after drug over Vehicle administration was calculated. Groups of 8 male mice were used for each condition.
To measure biological effect of lead molecules in vivo in the brain, lactate levels were quantified after administration of the drug by using lactate biosensors implanted in the cortex of freely moving mice.

[5] = tested on: C57Bl/6 male and female mice; assay: In vivo chronic toxicity (28 days); conditions: 10 mg/kg per os once a day, 28 days
Experimental: During this period, clinical symptoms and weight were recorded.
Chronic toxicity was assessed.

[6] = In vivo pharmacokinetics (PFC microdialysis and plasma); set-up: species or system mouse; conditions: after gavage with 100 mg/kg
Experimental: Mice were anesthetized using isoflurane (2% and 800 mL/min O2). Before surgery, Finadyne (1 mg/kg, s.c.) was administered for analgesia during surgery and the post-surgical recovery period. A mixture of bupivacaine and epinephrine was used for local anesthesia of the incision site of the periost of the skull.
The animals were placed in a stereotaxic frame (Kopf instruments, USA). MetaQuant microdialysis probes with a 3 mm exposed polyacrylonitrile membrane (MQ-PAN 3/3, Brainlink, the Netherlands) were implanted into the prefrontal cortex (coordinates for the tip of the probe: AP=+2.0 mm (to bregma), lateral=−0.7 mm (to midline), ventral=−3.3 mm (to dura), with the incisor bar set at 0.0 mm and an angle of 8°). All coordinates were based on “The mouse brain in stereotaxic coordinates” by Paxinos and Franklin (2004). The probes were attached to the skull with a stainless steel screw and dental cement (Fuji Plus Capsules, Henry Schein, the Netherlands).
In the same surgical procedure, a catheter was placed into the jugular vein to accommodate blood sampling. An indwelling cannula was inserted into the right jugular vein, and exteriorized through an incision on top of the skull. The end of the jugular vein catheter was fixed in position with dental acrylic cement and attached to the skull with two stainless steel screws.
Experiments were initiated one day after surgery. The MetaQuant microdialysis probes were connected with flexible PEEK tubing (Western Analytical Products Inc. USA; PK005-020) to a microperfusion pump (CMA Microdialysis) and perfused with aCSF+0.2% BSA at a flow rate of 0.12 μL/min. Ultrapurified water+0.2% BSA was used as the carrier flow at a flow rate of 0.80 μL/min. After a minimum of 1.5 hours of prestabilization, microdialysis samples were collected in 30 minute intervals. Samples were collected into polystyrene microvials (Microbiotech/se AB, Sweden; 4001029) using an automated fraction collector (UV 8301501, TSE, Univentor, Malta). After collection of three basal samples, at t=0 minutes, drug of interest was administered per os. Eight additional samples were collected after compound administration. All samples were stored at −80° C. until off-line analysis.
In parallel, blood samples (50 μL) were taken from the jugular vein through the cannula. These samples were collected at specified intervals into vials containing 5 μL heparin (500 IE/mL in saline). The samples were mixed by inverting the tubes and, subsequently, centrifuged at 4000 rpm (1500×g) for 10 min at 4° C. The supernatant was stored as plasma in 1.5 mL Eppendorf vials (Sarstedt, Germany) at −80° C. until off-line analysis.
At the end of the experiment, the animals were euthanized and terminal brain tissue was collected for visual histological verification of the probe positions.
PK was measured for GP-04, GP-05, GP-07, GP-R1 and GP-P1 in the PFC (prefrontal cortex) and plasma of wild type C56Bl/6 mice by CRO Brainsonline.

Structure (SMILES): Cc1nc2ccc(NS(=O)(=O)c3cccc(F)c3)cc2s1 [T6937001]
- mobilization of intracellular glycogen [1]: significantly enhance the mobilization of intracellular glycogen

Structure (SMILES): COc1ccc(Nc2nc(N3CCOCC3)c3ccccc3n2)cc1.Cl [T0508-5190]
- Glycogen (statistical significance of glycogen degradation) [2]: ** (**p<0.01)
- mobilization of intracellular glycogen [1]: significantly enhance the mobilization of intracellular glycogen

Structure (SMILES): C[N+]1(C)CCC(=C(c2ccccc2)c2ccccc2)CC1 [Diphemanil methylsulfate]
- Glycogen (statistical significance of glycogen degradation) [3]: **** (****p<0.0001)
- cerebral lactate (AUC ratio vs vehicle) ([4]; 10 mg/kg per os): Significant increase
- chronic toxicity (toxic or safe) [5]: safe
- levels in the PFC [6]: at therapeutic range (100 nM to 1 uM) and sustained over several hours

Structure (SMILES): Cc1ccccc1NC(=O)C1CCCN(c2ncnc3oc(C)c(C)c23)C1 (centres unmarked) [F228-0422]
- mobilization of intracellular glycogen [1]: significantly enhance the mobilization of intracellular glycogen

Structure (SMILES): c1ccc2c(c1)CCN(c1ncnc3sccc13)C2 [T0517-8250]
- mobilization of intracellular glycogen [1]: significantly enhance the mobilization of intracellular glycogen

Structure (SMILES): COc1cccc(CNS(=O)(=O)c2ccc3c(c2)CCCN3C(C)=O)c1 [T5967389]
- Glycogen (statistical significance of glycogen degradation) [2]: * (*p<0.05)

Structure (SMILES): CCn1nccc1-c1csc(S(=O)(=O)Nc2ccc(Cl)cc2F)c1 [L924-1031]
- mobilization of intracellular glycogen [1]: significantly enhance the mobilization of intracellular glycogen

Structure (SMILES): CC(=O)N1CCc2sc(S(=O)(=O)N3CCN(c4ccccc4C)CC3)cc2C1 [P025-0159]
- cerebral lactate (AUC ratio vs vehicle) ([4]; 100 mg/kg per os): Significant increase
- mobilization of intracellular glycogen [1]: significantly enhance the mobilization of intracellular glycogen
- levels in the PFC [6]: need chemical improvement to reach their target at therapeutic dose in the brain

Structure (SMILES): CCc1nc(-c2csc(S(=O)(=O)NCc3ccc4c(c3)OCO4)c2)no1 [L287-0468]
- mobilization of intracellular glycogen [1]: significantly enhance the mobilization of intracellular glycogen

Structure (SMILES): N#Cc1ccc(C(=O)N2CCC(Nc3ncnc4c3CCC4)C2)cc1 (centres unmarked) [T636-2387]
- cerebral lactate (AUC ratio vs vehicle) ([4]; 100 mg/kg per os): Significant increase
- mobilization of intracellular glycogen [1]: significantly enhance the mobilization of intracellular glycogen

Structure (SMILES): N=C(N)N1CCc2ccccc2C1 [Debrisoquin sulfate]
- Glycogen (statistical significance of glycogen degradation) [3]: **** (****p<0.0001)
- cerebral lactate (AUC ratio vs vehicle) ([4]; 10 mg/kg per os): Significant increase
- levels in the PFC [6]: at therapeutic range (100 nM to 1 uM) and sustained over several hours

Structure (SMILES): O=C1CCCN1c1ccc(S(=O)(=O)Nc2cccc(/C=C/c3ccccn3)c2)cc1 [T5644989]
- mobilization of intracellular glycogen [1]: significantly enhance the mobilization of intracellular glycogen

Structure (SMILES): COc1cc(C)c(Cl)cc1S(=O)(=O)NCc1ccncc1 [T5580243]
- cerebral lactate (AUC ratio vs vehicle) ([4]; 100 mg/kg per os): Significant increase
- levels in the PFC [6]: at therapeutic range (100 nM to 1 uM) and sustained over several hours
